According to article PMC6107127, “Characteristics of the mitochondrial and cellular uptake of MPP^+, as probed by the fluorescent mimic, 4'I-MPP^+” (PLoS ONE, 2018):

Key:
[1] = test system: MN9D cells; test: Cellular uptake of MPP+ and 4'I-MPP+ (HPLC-UV / fluorescence); format: cell-based, mouse; conditions: 100 μM toxin, 60 min, 37 °C, KRB-HEPES
Protocol: Cells were seeded into 12-well plates at 0.25 x 10^6 cells/well and grown 2–3 days to about 70–80% confluency. The media was removed and a solution containing 100 μM MPP^+ or 4'I-MPP^+ in warm KRB-HEPES (or without Ca^2+ and with 1.4 mM EGTA) was added to each well and incubated at 37 °C for the desired period of time (see Figure legends for further details). After the incubations, the media were removed and cells were washed with ice-cold KRB-HEPES. Washed cells were suspended in 1.0 mL of ice-cold KRB-HEPES and 50 μL aliquots were withdrawn for protein determination. The remaining cell suspensions were centrifuged at 5000 x g at 4 °C for 5 min and the cell pellets were treated with 75 μL of 0.1 M HClO4. The coagulated proteins were pelleted by centrifugation at 13,200 x g at 4 °C for 8 min and the MPP^+ or 4'I-MPP^+ contents of the supernatants were determined by C18-reversed-phase HPLC-UV (HPLC-UV) as previously described using standard curves constructed from authentic standards. The standard curves for HPLC-UV quantifications were constructed using authentic samples of MPP^+ and 4'I-MPP^+ under the same HPLC-UV separation conditions (S1 Fig).
To quantify 4'I-MPP^+ uptake by fluorescence, MN9D or HepG2 cells grown in glass bottomed plates, washed, and reconstituted with KRB-HEPES (1.0 mL), pH 7.4, and mounted on the stage of a Nikon ECLIPSE Ti-S inverted fluorescence microscope. […]

[2] = test system: HepG2 cells; test: MTT cell viability assay; format: cell-based, human
Protocol: Cell viability was determined by the MTT [3-(4,5-dimethylthiazol-2-yl)-2,5-diphenyltetrazolium bromide)] assay. Briefly, cells were seeded on 96-well plates and allowed to grow to about 70–80% confluence. Prior to the experiment, culture media was replaced with KRB-HCO3^- containing desired concentrations of MPP^+ or 4'I-MPP^+ and incubated for 16 h at 37 °C. After the incubation, 10 μL of 5 mg/mL MTT solution was added to each well and incubated for 2 h at 37 °C. The resulting formazan was solubilized by the addition of 210 μL detergent solution [50% DMF/H2O (v/v), 20% SDS (w/v)] followed by incubation at 37 °C for 12 h. The cell viabilities were determined by quantifying solubilized formazan by measuring the difference in the absorbance at 570 nm and 650 nm. Results were expressed as % viability of MPP^+ or 4'I-MPP^+ treated cells with respect to control cells, which were treated under the same conditions except in the absence of the MPP^+ or 4'I-MPP^+.

[3] = test system: rat brain mitochondrial complex-I (NADH: ubiquinone oxidoreductase); test: Ubiquinone dependent NADH oxidation (complex-I inhibition); format: biochemical; conditions: 200 μM
Protocol: Isolated rat brain mitochondria were lysed by freeze-thawing in hypotonic media containing 25 mM K3PO4 and 5 mM MgCl2, pH 7.2 [22]. The complex-I (i.e. NADH: ubiquinone oxidoreductase) activity of mitochondrial membrane fragments were determined according to the procedure of Birch-Machin and Turnbull. Briefly, mitochondrial membranes (50 μg protein) were incubated with 130 μM NADH (final concentration) and Antimycine A (2 μg/mL) in a 1.0 mL assay solution containing 25 mM K3PO4, 5 mM MgCl2, 2 mM KCN, 2.5 mg/mL bovine serum albumin, pH 7.2, for 2 min at 37 °C with or without rotenone, MPP^+ or 4'I-MPP^+ (for further details see the corresponding figure legends). The complex-I mediated ubiquinone dependent NADH oxidation was initiated by adding ubiquinone-1 to a final concentration of 65 μM and the initial rates of the reactions were monitored by following the decrease in absorbance at 340 nm with respect to 425 nm reference wavelength for 5 min.

[4] = test system: HepG2 cells; test: Intracellular ATP levels; format: cell-based, human; conditions: 100 μM, 6 h at 37 °C
Protocol: Cells grown in 12-well plates were treated with 100 μM MPP^+ or 4'I-MPP^+ in KRB-HEPES for 6 h at 37 °C. After the treatments, cells were suspended in 1 mL of ice-cold KRB-HEPES and 50 μL samples were withdrawn for protein quantification. The remaining cell suspensions were centrifuged for 3 min at 3,500 x g at 4 °C and the cell pellets were treated with 1 mL of lysis buffer (0.1 M Tris, 1% Triton X-100, pH 7.5) for 2 min and centrifuged at 3,500 x g for 3 min to remove the cell debris. The ATP contents of the supernatants were measured using a fluorometric ATP assay kit (BioVision, Milpitas CA, USA) following the manufacture’s guidelines. All ATP levels were normalized to the protein content of each sample.

[5] = test system: MN9D or HepG2 cells; test: Mitochondrial membrane potential depolarization (TMRM); format: cell-based; conditions: 100 μM
Protocol: MN9D or HepG2 cells grown in glass-bottomed plates were treated with 50 nM TMRM (AnaSpec, Fremont CA, USA) in KRB-HEPES for 45 min in the dark. After mounting on the stage of a Nikon ECLIPSE Ti-S inverted fluorescence microscope, 15–20 ROIs with uniform fluorescence were selected and TMRM fluorescence at Ex/Em at 543/573 nm was recorded at 5 sec time intervals for 3 min. Then, MPP^+ or 4'I-MPP^+ was added to a final concentration of 500 or 100 μM, respectively and TMRM fluorescence measurements were continued for an additional 40 min for MPP^+ and 15 min for 4'I-MPP^+ at 15 sec time intervals. The background fluorescence was subtracted from the ROI fluorescence and averages of corrected data were used to estimate the magnitude of the mitochondrial membrane potential.

SMILES: C[n+]1ccc(-c2ccc(I)cc2)cc1 [4'I-MPP^+, 1-methyl-4-(4'-iodophenyl)pyridinium]
- cellular uptake in 1 h [1]: 1.2 nmoles/mg of protein
- HepG2 cell toxicity ([2]; MPP+ at 0–1000 μM, 4'I-MPP+ at 0–200 μM, 16 h): resistant
- concentration above which toxic to HepG2 cells ([2]; rough estimates, data not shown): above 250 μM
- inhibition of the complex-I activity [3]: 46%
- effect on intracellular ATP levels [4]: deplete intracellular ATP levels
- time to depolarize the mitochondrial membrane by 20–50% [5]: 20 min
